According to paper PMC11576293, “New series of 4,6-diaryl pyrimidines: facile synthesis and antiproliferative activity as dual EGFR/VEGFR-2 inhibitors” (Frontiers in Chemistry, 2024):

Experiments:
Assay type in all cases: cell-based
A549/ATCC = assay: NCI-60 single-dose screen; settings: Homo sapiens, single dose 10 µM, '-' = no inhibition, read-out: % Growth Inhibition
Method in brief: (§1)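 Values come from NCI-60 one-dose testing: compound at 10 μM against sixty human cancer cell lines of nine tissue types, performed at NCI DTP.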

HOP-92 = assay: NCI-60 single-dose screen; settings: Homo sapiens, single dose 10 µM, '-' = no inhibition, read-out: % Growth Inhibition
Method in brief: as §1

MDA-MB231/ATCC = assay: NCI-60 single-dose screen; settings: Homo sapiens, MDA-MB-231, single dose 10 µM, '-' = no inhibition, read-out: % Growth Inhibition
Method in brief: as §1

COLO 205 = assay: NCI-60 single-dose screen; settings: Homo sapiens, single dose 10 µM, '-' = no inhibition, read-out: % Growth Inhibition
Method in brief: as §1

HCT-116 = assay: NCI-60 single-dose screen; settings: Homo sapiens, single dose 10 µM, '-' = no inhibition, read-out: % Growth Inhibition
Method in brief: as §1

RPMI-8226 = assay: NCI-60 single-dose screen; settings: Homo sapiens, single dose 10 µM, '-' = no inhibition, read-out: % Growth Inhibition
Method in brief: as §1

HS 578T = assay: NCI-60 single-dose screen; settings: Homo sapiens, single dose 10 µM, '-' = no inhibition, read-out: % Growth Inhibition
Method in brief: as §1

UO-31 = assay: NCI-60 single-dose screen; settings: Homo sapiens, single dose 10 µM, '-' = no inhibition, read-out: % Growth Inhibition
Method in brief: as §1

IGROV1 = assay: NCI-60 single-dose screen; settings: Homo sapiens, IGROV-1, single dose 10 µM, '-' = no inhibition, read-out: % Growth Inhibition
Method in brief: as §1

RXF 393 = assay: NCI-60 single-dose screen; settings: Homo sapiens, single dose 10 µM, '-' = no inhibition, read-out: % Growth Inhibition
Method in brief: as §1

SNB-19 = assay: NCI-60 single-dose screen; settings: Homo sapiens, single dose 10 µM, '-' = no inhibition, read-out: % Growth Inhibition
Method in brief: as §1

MCF7 = assay: NCI-60 single-dose screen; settings: Homo sapiens, single dose 10 µM, '-' = no inhibition, read-out: % Growth Inhibition
Method in brief: as §1

EKVX = assay: NCI-60 single-dose screen; settings: Homo sapiens, single dose 10 µM, '-' = no inhibition, read-out: % Growth Inhibition
Method in brief: as §1

UACC-257 = assay: NCI-60 single-dose screen; settings: Homo sapiens, single dose 10 µM, '-' = no inhibition, read-out: % Growth Inhibition
Method in brief: as §1

OVCAR-8 = assay: NCI-60 single-dose screen; settings: Homo sapiens, single dose 10 µM, '-' = no inhibition, read-out: % Growth Inhibition
Method in brief: as §1

BT-549 = assay: NCI-60 single-dose screen; settings: Homo sapiens, single dose 10 µM, '-' = no inhibition, read-out: % Growth Inhibition
Method in brief: as §1

MALME-3M = assay: NCI-60 single-dose screen; settings: Homo sapiens, single dose 10 µM, '-' = no inhibition, read-out: % Growth Inhibition
Method in brief: as §1

SF-539 = assay: NCI-60 single-dose screen; settings: Homo sapiens, single dose 10 µM, '-' = no inhibition, read-out: % Growth Inhibition
Method in brief: as §1

SN12C = assay: NCI-60 single-dose screen; settings: Homo sapiens, single dose 10 µM, '-' = no inhibition, read-out: % Growth Inhibition
Method in brief: as §1

SR = assay: NCI-60 single-dose screen; settings: Homo sapiens, single dose 10 µM, '-' = no inhibition, read-out: % Growth Inhibition
Method in brief: as §1

NCI/ADR-RES = assay: NCI-60 single-dose screen; settings: Homo sapiens, single dose 10 µM, '-' = no inhibition, read-out: % Growth Inhibition
Method in brief: as §1

SNB-75 = assay: NCI-60 single-dose screen; settings: Homo sapiens, single dose 10 µM, '-' = no inhibition, read-out: % Growth Inhibition
Method in brief: as §1

PC-3 = assay: NCI-60 single-dose screen; settings: Homo sapiens, single dose 10 µM, '-' = no inhibition, read-out: % Growth Inhibition
Method in brief: as §1

OVCAR-3 = assay: NCI-60 single-dose screen; settings: Homo sapiens, single dose 10 µM, '-' = no inhibition, read-out: % Growth Inhibition
Method in brief: as §1

MDA-MB-435 = assay: NCI-60 single-dose screen; settings: Homo sapiens, single dose 10 µM, '-' = no inhibition, read-out: % Growth Inhibition
Method in brief: as §1

[1] = tested on: four cancer cell lines (A-549, MCF-7, Panc-1, HT-29); assay: Antiproliferative assay, average over four cancer cell lines; settings: Homo sapiens; average of the four cancer cell lines; read-out: Average IC50 (GI50)
Text: Table 2 presents the four cancer cell lines’ median inhibitory concentration (IC50) and GI50 (average IC50) values.
The IC50 values were derived from dose-response tests. The reported data are derived from at least two independent studies, each comprising three replicates per concentration. See Supplementary Material A1 for more details.

[2] = Cell viability assay (MTT) on normal cells; settings: human, MCF-10A normal mammary gland epithelial cells, 4 days incubation

COc1ccc(-c2cc(-c3ccc(Cl)cc3)nc(SCc3ccccc3)n2)cc1OC [Compound 28, 2-(Benzylthio)-4-(4-chlorophenyl)-6-(3,4-dimethoxyphenyl)pyrimidine]
inhibition at 10 µM (A549/ATCC): 18.9%
inhibition at 10 µM (HOP-92): 0.63%
inhibition at 10 µM (MDA-MB231/ATCC): 23%
inhibition at 10 µM (COLO 205): 3.49%
inhibition at 10 µM (HCT-116): 25.9%
inhibition at 10 µM (RPMI-8226): 24.3%
inhibition at 10 µM (HS 578T): 18.2%
inhibition at 10 µM (UO-31): 24.8%
inhibition at 10 µM (IGROV1): < 0%
inhibition at 10 µM (RXF 393): < 0%
inhibition at 10 µM (SNB-19): 4.06%
inhibition at 10 µM (MCF7): 12.9%
inhibition at 10 µM (EKVX): 22.2%
inhibition at 10 µM (UACC-257): 15.3%
inhibition at 10 µM (OVCAR-8): 8.97%
inhibition at 10 µM (BT-549): 3.64%
inhibition at 10 µM (MALME-3M): < 0%
inhibition at 10 µM (SF-539): 17.8%
inhibition at 10 µM (SN12C): 23.1%
inhibition at 10 µM (SR): 39.4%
inhibition at 10 µM (NCI/ADR-RES): 14.3%
inhibition at 10 µM (SNB-75): < 0%
inhibition at 10 µM (PC-3): 19%
inhibition at 10 µM (OVCAR-3): < 0%
inhibition at 10 µM (MDA-MB-435): 15.2%
IC50 [1]: 41 nM
viability at 4 days, 50 µM [2]: 92%
